Test results taken from US9040712B2, “Thiadiazole analogs thereof and methods for treating SMN-deficiency-related-conditions” (NOVARTIS AG, priority 2013, dated 2015).

Each compound was assayed on SMN protein (assay: cellular SMN ELISA (SMN protein elevation)). Conditions: myoblast cell line derived from SMNdelta7 mouse model; 24 hours compound treatment; concentration range 100 pM-10 uM.
Format: cell-based
Procedure, shortened: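 Myoblasts derived from the SMNdelta7 mouse model, 3000 cells/well, treated with compound (100 pM–10 uM) for 24 h, then lysed in modified RIPA buffer. SMN protein quantified by sandwich ELISA (anti-SMN mAb capture, rabbit polyclonal detection, HRP/TMB, 450 nm). Results given as fold activation over DMSO and EC50.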

Q: For CN(c1nnc(-c2c(O)cc(-c3ccn(C)c(=O)c3)cc2OC(F)(F)F)s1)C1CC(C)(C)NC(C)(C)C1 [Example 60, 4-(3-hydroxy-4-(5-(methyl(2,2,6,6-tetra-methylpiperidin-4-yl)amino)-1,3,4-thiadiazol-2-yl)-5-(trifluoromethoxy)phenyl)-1-methylpyridin-2(1H)-one], which EC50 is on record?
A: Its EC50 is 53 nM.

Q: And the “SMN Activity Fold (fold activation over DMSO control)” value (from here on “SMN Activity Fold”)?
A: The value was 2.69 fold.

Q: Which results are given for COc1cc(-c2cn[nH]c2)cc(F)c1-c1nnc(N(C)C2CC(C)(C)NC(C)(C)C2)s1 [Example 61, 5-(2-fluoro-6-methoxy-4-(1H-pyrazol-4-yl)phenyl)-N-methyl-N-(2,2,6,6-tetramethylpiperidin-4-yl)-1,3,4-thiadiazol-2-amine]?
A: EC50: 95 nM; SMN Activity Fold (fold activation over DMSO control): 2.36 fold

Q: How did the EC50 turn out when COc1cc(-c2cn[nH]c2)cc(F)c1-c1nnc(N2C[C@H]3CN(C)C[C@H]3C2)s1 [Example 62, 2-(2-fluoro-6-methoxy-4-(1H-pyrazol-4-yl)phenyl)-5-((3aR,6aS)-5-methylhexahydro-pyrrolo[3,4-c]pyrrol-2(1H)-yl)-1,3,4-thiadiazole] was run?
A: Its EC50 is 3640 nM.

Q: And the “SMN Activity Fold” value?
A: Its value is 2.01 fold.

Q: COc1cc(-c2cn[nH]c2)c(F)c(F)c1-c1nnc(N(C)C2CC(C)(C)NC(C)(C)C2)s1 [Example 63, 5-(2,3-difluoro-6-methoxy-4-(1H-pyrazol-4-yl)phenyl)-N-methyl-N-(2,2,6,6-tetramethyl-piperidin-4-yl)-1,3,4-thiadiazol-2-amine] was tested. Which EC50 did it give?
A: The EC50 was 47 nM.

Q: What about the “SMN Activity Fold” value of the same compound?
A: Its value is 3.13 fold.

Q: COc1ccc2c(c1)CCN(c1nnc(N(C)C3CC(C)(C)NC(C)(C)C3)s1)C2=O [Example 64, 6-methoxy-2-(5-(methyl(2,2,6,6-tetramethylpiperidin-4-yl)amino)-1,3,4-thiadiazol-2-yl)-3,4-dihydroisoquinolin-1(2H)-one] was tested. Which EC50 did it give?
A: The EC50 was 1620 nM.

Q: And the “SMN Activity Fold” value?
A: The value was 2.51 fold.

Q: Which EC50 does the source give for CN(c1nnc(-c2ccc(-n3cccn3)cc2Cl)s1)C1CC(C)(C)NC(C)(C)C1 [Example 65, 5-(2-chloro-4-(1H-pyrazol-1-yl)phenyl)-N-methyl-N-(2,2,6,6-tetramethylpiperidin-4-yl)-1,3,4-thiadiazol-2-amine] here?
A: The EC50 was 273 nM.

Q: And the “SMN Activity Fold” value?
A: Its value is 2.37 fold.

Q: How did the EC50 turn out when CN(c1nnc(-c2ccc(-n3ccnn3)cc2Cl)s1)C1CC(C)(C)NC(C)(C)C1 [Example 66, 5-(2-chloro-4-(1H-1,2,3-triazol-1-yl)phenyl)-N-methyl-N-(2,2,6,6-tetramethylpiperidin-4-yl)-1,3,4-thiadiazol-2-amine] was run?
A: Its EC50 is 130 nM.

Q: And the “SMN Activity Fold” value?
A: Its value is 2.32 fold.

Q: With CN(c1nnc(-c2ccc(-n3nccn3)cc2Cl)s1)C1CC(C)(C)NC(C)(C)C1 [Example 67, 5-(2-chloro-4-(2H-1,2,3-triazol-2-yl)phenyl)-N-methyl-N-(2,2,6,6-tetramethylpiperidin-4-yl)-1,3,4-thiadiazol-2-amine] as the compound, how does the EC50 read?
A: Its EC50 is 159 nM.

Q: And the “SMN Activity Fold” value?
A: The value was 2.45 fold.

Q: What does the source list for CN(c1nnc(-c2ccc(-n3cncn3)cc2Cl)s1)C1CC(C)(C)NC(C)(C)C1 [Example 68, 5-(2-chloro-4-(1H-1,2,4-triazol-1-yl)phenyl)-N-methyl-N-(2,2,6,6-tetramethylpiperidin-4-yl)-1,3,4-thiadiazol-2-amine]?
A: EC50: 79 nM; SMN Activity Fold (fold activation over DMSO control): 2.64 fold

Q: Which results are given for CN(c1nnc(-c2ccc(-n3ccc(N)n3)cc2Cl)s1)C1CC(C)(C)NC(C)(C)C1 [Example 69, 5-(4-(3-amino-1H-pyrazol-1-yl)-2-chlorophenyl)-N-methyl-N-(2,2,6,6-tetramethylpiperidin-4-yl)-1,3,4-thiadiazol-2-amine]?
A: EC50: 171 nM; SMN Activity Fold (fold activation over DMSO control): 2.44 fold

Q: With CN1C[C@@H]2CN(c3nnc(-c4ccc(-n5ccnc5)cc4Cl)s3)C[C@@H]2C1 [Example 70, 2-(2-chloro-4-(1H-imidazol-1-yl)phenyl)-5-((3aR,6aS)-5-methylhexahydropyrrolo[3,4-c]pyrrol-2(1H)-yl)-1,3,4-thiadiazole] as the compound, how does the EC50 read?
A: Its EC50 is 2570 nM.

Q: What about the “SMN Activity Fold” value of the same compound?
A: The value was 2.17 fold.

Q: How did the EC50 turn out when CN(c1nnc(-c2ccc(-n3ccnc3)cc2Cl)s1)C1CC(C)(C)NC(C)(C)C1 [Example 71, 5-(2-chloro-4-(1H-imidazol-1-yl)phenyl)-N-methyl-N-(2,2,6,6-tetramethylpiperidin-4-yl)-1,3,4-thiadiazol-2-amine] was run?
A: The EC50 was 32 nM.

Q: And the “SMN Activity Fold” value?
A: The value was 2.40 fold.

Q: How did the EC50 turn out when CN(c1nnc(-c2ccc(-n3ccnc3)cc2F)s1)C1CC(C)(C)NC(C)(C)C1 [Example 72, 5-(2-fluoro-4-(1H-imidazol-1-yl)phenyl)-N-methyl-N-(2,2,6,6-tetramethylpiperidin-4-yl)-1,3,4-thiadiazol-2-amine] was run?
A: The EC50 was 91 nM.

Q: What about the “SMN Activity Fold” value of the same compound?
A: The value was 2.50 fold.

Q: With COc1cc(-c2ccn[nH]2)ccc1-c1nnc(N(C)C2CC(C)(C)NC(C)(C)C2)s1 [Example 73, 5-(2-methoxy-4-(1H-pyrazol-5-yl)phenyl)-N-methyl-N-(2,2,6,6-tetramethylpiperidin-4-yl)-1,3,4-thiadiazol-2-amine] as the compound, how does the EC50 read?
A: The EC50 was 110 nM.

Q: And the “SMN Activity Fold” value?
A: Its value is 2.73 fold.

Q: For COc1cc(-c2sc(C)nc2C)ccc1-c1nnc(N(C)C2CC(C)(C)NC(C)(C)C2)s1 [Example 74, 5-(4-(2,4-dimethylthiazol-5-yl)-2-methoxyphenyl)-N-methyl-N-(2,2,6,6-tetramethylpiperidin-4-yl)-1,3,4-thiadiazol-2-amine], which EC50 is on record?
A: Its EC50 is 85 nM.

Q: What about the “SMN Activity Fold” value of the same compound?
A: Its value is 2.64 fold.

Q: For COc1cc(-c2cccnc2)ccc1-c1nnc(N(C)C2CC(C)(C)NC(C)(C)C2)s1 [Example 75, 5-(2-methoxy-4-(pyridin-3-yl)phenyl)-N-methyl-N-(2,2,6,6-tetramethylpiperidin-4-yl)-1,3,4-thiadiazol-2-amine], which EC50 is on record?
A: The EC50 was 235 nM.

Q: And the “SMN Activity Fold” value?
A: Its value is 2.44 fold.

Q: Which EC50 does the source give for CN(c1nnc(-c2ccc(-c3cn[nH]c3)cc2F)s1)C1CC(C)(C)NC(C)(C)C1 [Example 76, 5-(2-fluoro-4-(1H-pyrazol-4-yl)phenyl)-N-methyl-N-(2,2,6,6-tetramethylpiperidin-4-yl)-1,3,4-thiadiazol-2-amine] here?
A: The EC50 was 43 nM.

Q: What about the “SMN Activity Fold” value of the same compound?
A: Its value is 3.06 fold.

Q: Which results are given for COc1cc(-c2ccc(-c3nnc(N(C)C4CC(C)(C)NC(C)(C)C4)s3)c(OC)c2)ccn1 [Example 77, 5-(2-methoxy-4-(2-methoxypyridin-4-yl)phenyl)-N-methyl-N-(2,2,6,6-tetramethyl-piperidin-4-yl)-1,3,4-thiadiazol-2-amine]?
A: EC50: 52 nM; SMN Activity Fold (fold activation over DMSO control): 3.33 fold

Q: Which results are given for COc1ccc(-c2ccc(-c3nnc(N(C)C4CC(C)(C)NC(C)(C)C4)s3)c(OC)c2)cn1 [Example 78, 5-(2-methoxy-4-(6-methoxypyridin-3-yl)phenyl)-N-methyl-N-(2,2,6,6-tetramethyl-piperidin-4-yl)-1,3,4-thiadiazol-2-amine]?
A: EC50: 165 nM; SMN Activity Fold (fold activation over DMSO control): 2.52 fold

Q: Which EC50 does the source give for CN1C[C@@H]2CN(c3nnc(-c4ccc(-c5cnn(C)c5)cc4Cl)s3)C[C@@H]2C1 [Example 79, 2-(2-chloro-4-(1-methyl-1H-pyrazol-4-yl)phenyl)-5-((3aR,6aS)-5-methylhexahydropyrrolo[3,4-c]pyrrol-2(1H)-yl)-1,3,4-thiadiazole] here?
A: Its EC50 is 150 nM.

Q: And the “SMN Activity Fold” value?
A: The value was 2.76 fold.
